Several values for one entry are separate records, joined by “and”; a condition that tells them apart may be missing. Equal values may be shown once.
Columns and labels:
[1] = Water-solubility test of compounds of Formula II and Formula IV; type: physicochemical; conditions: the C-20 phosphite salt (Formula II) itself, read-out: Water-solubility of Comp of Formula II
[2] = test system: S1 and S1-M1-80 (characteristic expression of ABCG2/BCRP); assay: Anti-drug resistance test (MTT, resistance index); type: cell-based; conditions: S1-M1-80 (ABCG2/BCRP) versus S1 cells, 72 h, from IC50
Experimental: Logarithmic growth phase S1 and S1-M1-80 (characteristic expression of ABCG2/BCRP) were prepared as cell suspension of 2.5×10^4 cells/ml and 6×10^4 cells/ml, and were seeded in into 96-well plates with 0.19 ml/well. After incubating in cell incubator for 24 hours at 37° C., 5% CO2, sample solutions in various concentrations were added at 0.01 ml/well. Stroke-physiological saline solution is used as control well. Each treatment is conducted in 3 parallel wells. The drugs were added and incubated additional 72 h hours. And 5 mg/ml of MTT is added at 0.02 ml/well before four hours of the end the incubation. The culture liquid is removed at the end of incubation. Each well was added 0.1 ml of DMSO and OD values were measured at wavelength of 540 nm and reference wavelength of 655 nm. The experiment was repeated three times. Equation 1 is used to calculate cell growth inhibition rate (IR); and Equation 2 is used to calculate resistance index. Bliss method is used to calculate the 50% inhibitory concentration (IC50).

[3] = test system: human multiple myeloma cells NCI-H929 xenografts; assay: Tumor inhibitory effect on multiple myeloma cells NCI-H929 xenografts in nude mice; type: in vivo, BALB/c nude mouse; conditions: for IR By RTV % / IR By TW % / RTV (X ± SD) / TW (X ± SD, g) / Bw (X ± SD, g) end / TV (X ± SD, mm^3) End / Bw (X ± SD, g) initial / TV (X ± SD, mm^3) initial: once every 4 days, intraperitoneal; for IR By RTV % / IR By TW % / RTV (X ± SD) / TW (X ± SD, g): 11th day; for Bw (X ± SD, g) end / TV (X ± SD, mm^3) End: end (11th day after inoculation)
Experimental: Multiple myeloma cells were routinely passaged in vitro, inoculated in 40 6-7-week-old BALB/c nude mouse, each mouse was subcutaneously injected human multiple myeloma cells NCI-H929 at its right axillary. Weighed after two days. The mice were randomly divided into five groups, eight in each group. Each group was dosed as follows: • i. physiological saline control group • ii. Topotecan positive control group, 2 mg/kg, once every 4 days, intraperitoneal injection • iii. WQ1001, high-dose group, 35 mg/kg, once every 4 days, intraperitoneal injection • iv. WQ1001, middle dose group, 25 mg/kg, once every 4 days, intraperitoneal injectionv. v. WQ1001, low dose group, 18 mg/kg, once every 4 days, intraperitoneal injection
Body weight(BW) as well as long diameter and short diameter of tumors were measured every two days. Tumor volume was calculated according to the Equation 1. On the 11th day after inoculation, the mice were weighed, long diameter and short diameter of tumors were measured, and relative tumor volume (RTV) was calculated according to Equation 2. Mice were sacrificed by cervical dislocation and the tumor mass was stripped and weighed. Inhibition rate (IR) was calculated according to the Equation 3. RTV and tumor weight (TW) for each group were analyzed through T-test.

[4] = Plasma concentration of WQ1001 (HM 910) and its metabolite CPT in rats after intravenous injection; type: in vivo; conditions: for HM 910 Plasma / HM 910 Plasma (ng/mL): individual rats 1-6
Experimental: Intravenous administration in rats: six healthy SD rats, weighing 180˜220 g, three males and three females. Fasting for 12 h before dosing, free access to water. 20 mg/kg of HM 910 was administrated by intravenous bolus injection though caudal vein of the rats, with dose-volume volume of 1.0 mL/kg. Blooding 0.25 mL from the animal through the jugular vein, anti-clotting with heparin sodium, adding 0.2% formic acid within the anticoagulant. Blooding at following time points: 5 min, 15 min, 30 min, 45 min, 1 h, 1.5 h, 2 h, 2.5 h, 3 h, 4 h before and after administration. Blood samples were placed on ice after blooding and the plasma was centrifugal separated within 30 minutes (centrifugation conditions: 8000 r/min, 6 minutes, room temperature). The plasma collected was stored at −80° C. for analysis.

[5] = SD rats, 20 mg/kg HM 910 i.v. bolus, 2.5 hr, 20 mg/kg

CC[C@@]1(O[PH](=O)[O-])C(=O)OCc2c1cc1n(c2=O)Cc2cc3ccccc3nc2-1.[Na+] [WQ1001]
solubility [1]: > 10000 µg/mL | Resistance index [2]: 6 | anti-tumor effect on NCI-H929 xenografts in nude mice (in words) ([3]; 25 mg/kg): significant anti-tumor effect | IR By RTV % ([3]; HM910 l-dose 18 mg/kg): 66.5% | IR By TW % ([3]; HM910 l-dose 18 mg/kg): 72.7% | RTV (X ± SD) ([3]; HM910 l-dose 18 mg/kg): 13.5 ± 11.0 | TW (X ± SD, g) ([3]; HM910 l-dose 18 mg/kg): 0.41 ± 0.34 g | Bw (X ± SD, g) end ([3]; HM910 l-dose 18 mg/kg): 19.2 ± 0.9 g | TV (X ± SD, mm^3) End ([3]; HM910 l-dose 18 mg/kg): 653.0 ± 560.4 mm^3 | Bw (X ± SD, g) initial ([3]; HM910 l-dose 18 mg/kg): 21.0 ± 1.6 g | TV (X ± SD, mm^3) initial ([3]; HM910 l-dose 18 mg/kg): 48.6 ± 4.9 mm^3 | IR By RTV % ([3]; HM910 m-dose 25 mg/kg): 75.7% | IR By TW % ([3]; HM910 m-dose 25 mg/kg): 82.0% | RTV (X ± SD) ([3]; HM910 m-dose 25 mg/kg): 9.80 ± 11.6 | TW (X ± SD, g) ([3]; HM910 m-dose 25 mg/kg): 0.27 ± 0.35 g | Bw (X ± SD, g) end ([3]; HM910 m-dose 25 mg/kg): 18.5 ± 0.7 g | TV (X ± SD, mm^3) End ([3]; HM910 m-dose 25 mg/kg): 480.1 ± 570.6 mm^3 | Bw (X ± SD, g) initial ([3]; HM910 m-dose 25 mg/kg): 17.3 ± 0.7 g | TV (X ± SD, mm^3) initial ([3]; HM910 m-dose 25 mg/kg): 48.2 ± 7.8 mm^3 | IR By RTV % ([3]; HM910 h-dose 35 mg/kg): 86.1% | IR By TW % ([3]; HM910 h-dose 35 mg/kg): 88.2% | RTV (X ± SD) ([3]; HM910 h-dose 35 mg/kg): 5.61 ± 9.74 | TW (X ± SD, g) ([3]; HM910 h-dose 35 mg/kg): 0.18 ± 0.36 g | Bw (X ± SD, g) end ([3]; HM910 h-dose 35 mg/kg): 18.8 ± 0.6 g | TV (X ± SD, mm^3) End ([3]; HM910 h-dose 35 mg/kg): 272.3 ± 483.1 mm^3 | Bw (X ± SD, g) initial ([3]; HM910 h-dose 35 mg/kg): 17.3 ± 0.7 g | TV (X ± SD, mm^3) initial ([3]; HM910 h-dose 35 mg/kg): 46.9 ± 8.8 mm^3 | anti-tumor effect on NCI-H929 xenografts in nude mice (in words) ([3]; high dose, 35 mg/kg): significant anti-tumor effect | anti-tumor effect on NCI-H929 xenografts in nude mice (in words) ([3]; low-dose group, 18 mg/kg): significant anti-tumor effect | HM 910 Plasma ([4]; SD rats, 20 mg/kg HM 910 i.v. bolus, 0.083 hr, 20 mg/kg): 56652 ng/mL and 31029 ng/mL and 37348 ng/mL and 56722 ng/mL and 45165 ng/mL and 21141 ng/mL | HM 910 Plasma ([4]; SD rats, 20 mg/kg HM 910 i.v. bolus, 0.25 hr, 20 mg/kg): 13690 ng/mL and 9484 ng/mL and 7271 ng/mL and 16294 ng/mL and 6761 ng/mL and 5639 ng/mL | HM 910 Plasma ([4]; SD rats, 20 mg/kg HM 910 i.v. bolus, 0.5 hr, 20 mg/kg): 2530 ng/mL and 1425 ng/mL and 1633 ng/mL and 4582 ng/mL and 1536 ng/mL and 1628 ng/mL | HM 910 Plasma ([4]; SD rats, 20 mg/kg HM 910 i.v. bolus, 0.75 hr, 20 mg/kg): 919 ng/mL and 574 ng/mL and 539 ng/mL and 1578 ng/mL and 617 ng/mL and 607 ng/mL | HM 910 Plasma ([4]; SD rats, 20 mg/kg HM 910 i.v. bolus, 1 hr, 20 mg/kg): 499 ng/mL and 259 ng/mL and 240 ng/mL (2×) and 668 ng/mL and 256 ng/mL | HM 910 Plasma ([4]; SD rats, 20 mg/kg HM 910 i.v. bolus, 1.5 hr, 20 mg/kg): 97.2 ng/mL and 78.0 ng/mL and 45.2 ng/mL and 162 ng/mL and 59.0 ng/mL and 96.4 ng/mL | HM 910 Plasma ([4]; SD rats, 20 mg/kg HM 910 i.v. bolus, 2 hr, 20 mg/kg): 18.3 ng/mL and 25.7 ng/mL and 51.5 ng/mL and 39.5 ng/mL and 20.8 ng/mL and 53.7 ng/mL | HM 910 Plasma [4, 5]: 28.2 ng/mL and 17.2 ng/mL and 18.4 ng/mL and 11.0 ng/mL | HM 910 Plasma (ng/mL) [4, 5]: BLQ | HM 910 Plasma (ng/mL) ([4]; SD rats, 20 mg/kg HM 910 i.v. bolus, 3 hr): BLQ | HM 910 Plasma (ng/mL) ([4]; SD rats, 20 mg/kg HM 910 i.v. bolus, 4 hr): BLQ | Fate of the tested drug after injection into the rats ([4]; SD rats, 20 mg/kg i.v. bolus): degraded and the releases camptothecin | concentration at 0.083 h ([4]; both sexes, Sprague-Dawley (SD), rat, plasma, iv, 20 mg/kg, 20 mg/kg HM 910 i.v. bolus, 0.083 hr, mean of rats): 41300 ng/mL | concentration at 0.25 h ([4]; both sexes, Sprague-Dawley (SD), rat, plasma, iv, 20 mg/kg, 20 mg/kg HM 910 i.v. bolus, 0.25 hr, mean of rats): 9860 ng/mL | concentration at 0.5 h ([4]; both sexes, Sprague-Dawley (SD), rat, plasma, iv, 20 mg/kg, 20 mg/kg HM 910 i.v. bolus, 0.5 hr, mean of rats): 2220 ng/mL | concentration at 0.75 h ([4]; both sexes, Sprague-Dawley (SD), rat, plasma, iv, 20 mg/kg, 20 mg/kg HM 910 i.v. bolus, 0.75 hr, mean of rats): 806 ng/mL | concentration at 1 h ([4]; both sexes, Sprague-Dawley (SD), rat, plasma, iv, 20 mg/kg, 20 mg/kg HM 910 i.v. bolus, 1 hr, mean of rats): 360 ng/mL | concentration at 1.5 h ([4]; both sexes, Sprague-Dawley (SD), rat, plasma, iv, 20 mg/kg, 20 mg/kg HM 910 i.v. bolus, 1.5 hr, mean of rats): 89.6 ng/mL | concentration at 2 h ([4]; both sexes, Sprague-Dawley (SD), rat, plasma, iv, 20 mg/kg, 20 mg/kg HM 910 i.v. bolus, 2 hr, mean of rats): 34.9 ng/mL | concentration at 2.5 h ([4]; both sexes, Sprague-Dawley (SD), rat, plasma, iv, 20 mg/kg, 20 mg/kg HM 910 i.v. bolus, 2.5 hr, mean of rats): 18.7 ng/mL
